In US20260256922A1, “PRODRUGS USEFUL FOR REDUCING ANTHRACYCLINE CARDIOTOXICITY” (WAKE FOREST UNIVERSITY HEALTH SCIENCES, priority 2022, published 2026):
“Also recorded” adds a separate entry of the source.

Experiments:
[1] = Time-dependent DOX release from prodrugs in presence of H2O2 (LCMS); format: physicochemical; conditions: prodrug 10 μM, H2O2 10 μM, ammonium bicarbonate buffer 0.1 M pH 7.4, room temperature, over two hours
Experimental: FIG. 1. Time-course for DOX release from prodrugs (10 μM) in ammonium bicarbonate buffer (0.1 M, pH 7.4) at room temperature and in the presence of H2O2 (10 μM). A calibration curve was used to determine the concentration of free DOX at each time point by LCMS. Plotted as the mean±standard error of the mean (SEM) from three independent experiments.
To confirm this reactivity, we incubated c1 (10 μM) with H2O2 (10 μM) at room temperature in ammonium bicarbonate buffer (0.1 M, pH 7.4). At various time points, an aliquot was removed and analyzed by LCMS. Using a calibration curve, we determined the percentage of released DOX over the course of two hours. […] For comparison, we also assessed the reactivity of c2 towards the same concentration of peroxides. Like c1, c2 also functioned as an H2O2-activated DOX prodrug, but with faster kinetics, as quantitative release of free DOX was realized within 60 min.
A stock solution of c1 (or c2, 10 mM) in DMSO and H2O2 (10 mM) in ammonium bicarbonate buffer (0.1M, pH 7.4) were prepared immediately prior to use. […] At various time points (0 min, 10 min, 35 min, 60 min, 80 min, 100 min, 120 min), a 1 mL (inject volume 60 μL) aliquot was removed and analyzed by LC-MS (using a C18 analytical column and eluting at 0.4 mL/min with a linear gradient (20-90% v/v) MeOH/H2O (0-2 min), followed by 90% v/v MeOH/H2O (2-19 min)). […]

caspase-3 = assay: Caspase-3 cleavage immunoblot in H9C2 cells; conditions: 24 h
Experimental: FIG. 6. […] H9C2 cells in culture were treated for 24 hr with c1, c2, DOX or vehicle (DMSO), then harvested into lysis buffer and immunoblotted for caspase-3. Data analyzed by ImageJ were used to assess the percent of the two bands present as the lower band.
We next evaluated apoptotic signaling through caspase-3 cleavage at 24 h to compare the experimental compounds.
To evaluate levels of caspase cleavage (using an antibody recognizing both cleaved and uncleaved, Cell Signaling, cat #9662), Nrf2 (antibody from Thermo Fisher, cat #PA5-27882), and HO-1 (antibody from Proteintech, cat #10701-1-AP), H9C2 cells were plated at a density of 450,000 per well in a 24-well plate, then treated 24 h later with 10 or 20 µM DOX and incubated another 24 h before harvesting. For some samples, 100 mM hydroxocobalamin (HO-Cbl) was added 5 min before drug treatment. Cells were harvested by removing media (and recovering any non-adherent cells by centrifugation for 5 min at 10,600×g, discarding the supernatant), and combining that with the 120 μL of lysis buffer added to each well. Lysis buffer [50 mM Tris-HCl at pH 8.0, with 100 mM NaCl, 100 µM diethylene triamine pentaacetic acid (DTPA), 20 mM β-glycerophosphate, 0.1% SDS, 0.5% Na Desoxycholate, and 0.5% Triton-X-100] was prepared by freshly adding protease and phosphatase inhibitors before use (1 mM PMSF, 10 μg/mL aprotinin, 1 mM Na3VO4, 10 mM NaF and 10 μg/mL leupeptin). Samples were further incubated on ice for 30 min, then centrifuged at high speed (20,800×g for 10 min) to remove cell debris, and supernatants were mixed with 5×SDS protein sample buffer for Western blot analysis following resolution of 40 μg per sample on 10% SDS-polyacrylamide gels. Protein concentrations of supernatants were determined using a BCA assay (Pierce). Antibodies were used at dilutions of 1:1000 (for HO-1 and caspase-3) or 1:3000 (for Nrf2).

Nrf2 = Nrf2 and HO-1 immunoblots in H9C2 cells; format: cell-based, rat; conditions: H9C2, relative to DMSO vehicle
From the text: The bar graphs below represent the mean±SEM. Results were statistically different between c1 and DOX in both cases (p=0.002 and p=0.019), and more marginally so between c1 and DMSO (p=0.011 and p.=0.025), for Nrf2 and HO-1, respectively.

[2] = tested on: 4T1 mouse breast cancer cells; assay: LDH release cytotoxicity assay in 4T1 cells; format: cell-based; conditions: 10 or 20 μM, 24 or 48 h, other than the lowest dose and shortest time
From the text: FIG. 8. Cytotoxicity of DOX and prodrugs in 4T1 mouse breast cancer cells.
DOX is a known cytotoxic agent used against 4T1 triple-negative breast cancer cells grown in culture or injected orthotopically into mouse mammary fat pads to initiate the development of tumors.^52,53 As an initial test to see if c1 could retain the cytotoxic properties of DOX toward tumor-forming 4T1 cells, we conducted LDH assays to assess cytotoxicity of DOX, c1 and c2 treatments.

mitochondrial ROS = assay: Mitochondrial ROS in cardiomyoblasts; conditions: compared with DOX

## COc1cccc2c1C(=O)c1c(O)c3c(c(O)c1C2=O)C[C@@](O)(C(=O)CO)C[C@@H]3O[C@H]1C[C@H](NC(=S)OCc2ccc(B3OC(C)(C)C(C)(C)O3)cc2)[C@H](O)[C@H](C)O1 [c1]
[1]
  percentage of released DOX: greater than 70%
caspase-3; H9C2, 10 μM drug, 100 mM hydroxocobalamin added 5 min prior
  caspase-3 cleavage with H2S scavenger hydroxocobalamin: much more cleavage of caspase-3 than in its absence
caspase-3; H9C2, 10 or 20 μM
  caspase-3 cleavage: neither c1 nor c2 at either 10 or 20 UM caused notable caspase-3 cleavage
Nrf2
  HO-1 expression (immunoblot): largely preserved Nrf2 activation and HO-1 expression; also recorded: only moderately suppressive
  Nrf2 activation (immunoblot): largely preserved Nrf2 activation and HO-1 expression; also recorded: only moderately suppressive
[2]
  cytotoxicity (LDH release): comparable, sometimes less and sometimes more, toxicity relative to DOX
Mitochondrial ROS
  mitochondrial ROS levels: lower levels of mitochondrial ROS
